Test results taken from patent US9889146B2, “Benzoxaborole compounds and uses thereof” (priority 2012, dated 2018).
Converted amounts (≈) assume the structure as drawn. Read-outs that look alike come from different tables or passages of the source.

Tests used:
[1] = test system: Enterobacter aerogenes (AmpC); test: microbe, parasite or virus in culture; format: cell-based; conditions: Klebsiella aerogenes
[2] = test system: Enterobacter cloacae (AmpC); test: microbe, parasite or virus in culture; format: cell-based; conditions: Enterobacter cloacae
[3] = test system: K. pneumoniae ATCC 13883 wild type and mutants; test: MIC, wild type and GSK2251052 resistant mutants; format: cell-based; conditions: Klebsiella pneumoniae
In short: (§1)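 MICs were determined following CLSI M7-A7 recommendations for aerobic bacteria. Strains were E. coli ATCC 25922, K. pneumoniae ATCC 13883, P. aeruginosa ATCC 27853 and six to ten laboratory-selected GSK2251052-resistant colonies of each, carrying mutations in the LeuRS editing domain.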

[4] = test system: P. aeruginosa ATCC 27853 wild type and mutants; test: MIC, wild type and GSK2251052 resistant mutants; format: cell-based; conditions: Pseudomonas aeruginosa
In short: as §1

[5] = test system: E. coli ATCC 25922 wild type and mutants; test: MIC, wild type and GSK2251052 resistant mutants; format: cell-based; conditions: Escherichia coli
In short: as §1

[6] = test system: E. coli (WT); test: microbe, parasite or virus in culture; format: cell-based; conditions: Escherichia coli; E. coli (WT), 214 isolates; read-out: MIC90
[7] = test system: Klebsiella spp. (WT); test: microbe, parasite or virus in culture; format: cell-based; conditions: Klebsiella spp. (WT), 159 isolates; read-out: MIC90
[8] = test system: Enterobacter cloacae (WT); test: microbe, parasite or virus in culture; format: cell-based; conditions: 202 isolates, read-out: MIC90
[9] = test system: Enterobacter aerogenes (WT); test: microbe, parasite or virus in culture; format: cell-based; conditions: Klebsiella aerogenes; Enterobacter aerogenes (WT), 199 isolates; read-out: MIC90
[10] = test system: Morganella morganii (AmpC); test: microbe, parasite or virus in culture; format: cell-based; conditions: Morganella morganii
[11] = test system: Providencia spp.(all); test: microbe, parasite or virus in culture; format: cell-based; conditions: Providencia spp.(all), 68 isolates; read-out: MIC90
[12] = test system: P. aeruginosa; test: In vitro activity against P. aeruginosa clinical isolates; format: cell-based; conditions: P. aeruginosa, 2,008 clinical isolates; GSK2251052 based on potential susceptible breakpoint of ≦4 μg/mL
Procedure: GSK2251052 was tested for activity against P. aeruginosa, and its activity was compared to other antibiotics of known activity. The results are shown below in Tables 2a and 2b. Of 2,008 clinical isolates tested (from 2009-2010 subjects, of which 40% were from North America) greater than 90% were susceptible to GSK2251052 based on a potential susceptible breakpoint of ≦4 μg/mL.

[13] = test system: Proteus mirabilis (WT); test: microbe, parasite or virus in culture; format: cell-based; conditions: Proteus mirabilis (WT), 235 isolates; read-out: MIC90
[14] = test system: Citrobacter freundii (AmpC); test: microbe, parasite or virus in culture; format: cell-based; conditions: Citrobacter freundii
[15] = test system: Klebsiella spp. (ESBL); test: microbe, parasite or virus in culture; format: cell-based; conditions: Klebsiella
[16] = test system: Klebsiella spp. (KPC); test: microbe, parasite or virus in culture; format: cell-based; conditions: Klebsiella
[17] = test system: Proteus vulgaris (WT); test: microbe, parasite or virus in culture; format: cell-based; conditions: Proteus vulgaris (WT), 41 isolates; read-out: MIC90
[18] = test system: Enterobacteriaceae; test: organism not typed; format: cell-based; conditions: Enterobacteriaceae, 2029 isolates; read-out: MIC90
[19] = test system: K. pneumoniae ATCC 13883; test: Spontaneous frequency of resistance; format: cell-based; conditions: 24 h
Procedure: (§2) Spontaneous Resistance Frequency was determined in vitro for GSK2251052 and the resistance mutants in E. coli ATCC 25922, K. pneumoniae ATCC 13883, and P. aeruginosa ATCC 27853 strains were characterized. GSK2251052 was prepared as described in U.S. Pat. No. 7,816,344 (the entire contents of which are hereby incorporated by reference herein). LB broth, Mueller Hinton II broth (adjusted), and Difco noble agar were obtained from Becton Dickinson (Cockeysville, Md., USA). M9 minimal broth containing 1×M9 salt, 0.5 μg/ML thiamine, 1 mM MgSO4, 0.1 mM CaCl2, 2% glucose, was obtained from Teknova (Hollister, Calif., USA). Antibacterial agents ciprofloxacin, ceftazidime, chloramphenicol, gentamycin, kanamycin, polymixin B, tobramycin and trimethoprim, and amino acids were obtained from Sigma Chemicals (St. Louis, Mo., USA). Strains were obtained from ATCC (Manassas, Va., USA).
(§3) Selection of resistance to GSK2251052 was attempted by spreading various amounts of bacteria onto MHBII noble agar plates containing 4×MIC (minimum inhibitory concentration) or 10×MIC of GSK2251052. Colonies were counted after 24 hours and 48 hours incubation at 37° C. The resistance of these colonies was confirmed by their ability to grow on plates containing GSK2251052 at either 4× or 10×MIC. Frequency of resistance was determined by dividing the number of resistant mutants by the total number of cells plated as determined by plating dilutions of the overnight culture on LB plates.

[20] = test system: P. aeruginosa ATCC 27853; test: Spontaneous frequency of resistance; format: cell-based; conditions: 24 h
Procedure: as §2, §3

[21] = test system: E. coli ATCC 25922; test: Spontaneous frequency of resistance; format: cell-based; conditions: 24 h
Procedure: as §2, §3

[22] = test system: E. coli ATCC 25922, K. pneumoniae ATCC 13883 and P. aeruginosa ATCC 27853; test: MIC, three strains and their mutants summarised; format: cell-based; conditions: MIC in E. coli, P. aeruginosa and K. pneumoniae mutants versus wild-type
Procedure: as §2
Susceptibility tests were performed following the recommendations for aerobic bacteria (M7-A7) from the Clinical and Laboratories Standards Institute (CLSI).
Laboratory generated mutants resistant to GSK2251052 contain mutations in the editing domain of LeuRS. Six to ten GSK2251052 resistant colonies of E. coli ATCC 25922, K. pneumoniae ATCC 13883 and P. aeruginosa ATCC 27853 were selected for further analysis and their MICs to GSK2251052 were determined (Table 4-7).
GSK2251052 resistant mutants were not cross-resistant to commercial antibiotics.

[23] = test system: S. marcescens (AmpC); test: microbe, parasite or virus in culture; format: cell-based; conditions: Serratia marcescens
[24] = test system: E. coli (ESBL); test: microbe, parasite or virus in culture; format: cell-based; conditions: Escherichia coli
[25] = test system: K. pneumoniae; conditions: up regulation of an AcrAB efflux pump; Ruzin et al. AAC 2005; cited from earlier work

With CC(C)(O/N=C(\C(=O)N[C@@H]1C(=O)N2C(C(=O)[O-])=C(C[n+]3ccccc3)CS[C@H]12)c1csc(N)n1)C(=O)O [Ceftazidime] the MIC90 [1] was > 16 µg/mL, the MIC90 [2] was > 16 µg/mL and the MIC ([3]; ATCC13883, K wt., read-out: MICs) was 0.5 µg/mL (≈ 0.915 µM). It also gave an MIC ([3]; ATCC13883, read-out: MICs, mutant K 104) of 0.5 µg/mL (≈ 0.915 µM), an MIC ([3]; ATCC13883, read-out: MICs, mutant K 105) of 0.5 µg/mL (≈ 0.915 µM) and an MIC ([3]; ATCC13883, read-out: MICs, mutant K 107) of 0.5 µg/mL (≈ 0.915 µM). The MIC ([3]; ATCC13883, read-out: MICs, mutant K 108) was 1 µg/mL (≈ 1.83 µM), the MIC ([3]; ATCC13883, read-out: MICs, mutant K 110) was 0.5 µg/mL (≈ 0.915 µM) and the MIC ([4]; ATCC27853, P wt., read-out: MICs) was 2 µg/mL (≈ 3.66 µM). The MIC ([4]; ATCC27853, read-out: MICs, mutant P 101) was 4 µg/mL (≈ 7.32 µM), the MIC ([4]; ATCC27853, read-out: MICs, mutant P106) was 2 µg/mL (≈ 3.66 µM) and the MIC ([4]; ATCC27853, read-out: MICs, mutant P108) was 2 µg/mL (≈ 3.66 µM). The MIC ([5]; ATCC25922, E wt, read-out: MICs) was 0.5 µg/mL (≈ 0.915 µM), the MIC ([5]; ATCC25922, read-out: MICs, mutant E 101) was 0.5 µg/mL (≈ 0.915 µM) and the MIC ([5]; ATCC25922, read-out: MICs, mutant E 102) was 0.5 µg/mL (≈ 0.915 µM). The MIC ([5]; ATCC25922, read-out: MICs, mutant E 107) was 0.5 µg/mL (≈ 0.915 µM), the MIC90 [6] was ≤ 1 µg/mL and the MIC90 [7] was ≤ 1 µg/mL. For the same molecule, the MIC90 [8] was ≤ 1 µg/mL, the MIC90 [9] was ≤ 1 µg/mL and the MIC90 [10] was > 16 µg/mL. For the same molecule, the MIC90 [11] was 8 µg/mL (≈ 14.6 µM), the “% susceptible” value [12] was 66.4% and the MIC90 [13] was ≤ 1 µg/mL. The MIC90 [14] was > 16 µg/mL, the MIC90 [15] was > 16 µg/mL and the MIC90 [16] was > 16 µg/mL. For the same molecule, the MIC90 [17] was ≤ 1 µg/mL, the MIC90 [18] was > 16 µg/mL and the “Frequency of Resistance” value ([19]; 4 X MIC) was 1 × 10^−8. For the same molecule, the “Frequency of Resistance” value ([19]; 10 X MIC) was <4 × 10^−9, the “Frequency of Resistance” value ([20]; 4 X MIC) was 2 × 10^−7 and the “Frequency of Resistance” value ([20]; 10 X MIC) was 2 × 10^−8. The “Frequency of Resistance” value ([21]; 4 X MIC) was <3 × 10^−9, the “Frequency of Resistance” value ([21]; 10 X MIC) was <3 × 10^−9 and the “cross-resistance of GSK2251052 resistant mutants” value [22] was “did not have any significant difference in MIC values than wild-type”. For the same molecule, the MIC90 [23] was > 16 µg/mL and the MIC90 [24] was > 16 µg/mL.
For CN(C)c1cc(NC(=O)CNC(C)(C)C)c(O)c2c1C[C@H]1C[C@H]3[C@H](N(C)C)C(O)=C(C(N)=O)C(=O)[C@@]3(O)C(O)=C1C2=O [Tigecycline], the “phenotype of resistant mutants” value [25] is listed as “multidrug-resistant”, the MIC90 [1] is listed as 2 µg/mL (≈ 3.41 µM) and the MIC90 [2] is listed as 4 µg/mL (≈ 6.83 µM). For the same molecule, the MIC90 [6] was 0.25 µg/mL (≈ 0.427 µM), the MIC90 [7] was 1 µg/mL (≈ 1.71 µM) and the MIC90 [8] was 0.5 µg/mL (≈ 0.854 µM). It also gave an MIC90 [9] of 0.5 µg/mL (≈ 0.854 µM), an MIC90 [10] of 4 µg/mL (≈ 6.83 µM) and an MIC90 [11] of 4 µg/mL (≈ 6.83 µM). For the same molecule, the MIC90 [13] was 4 µg/mL (≈ 6.83 µM), the MIC90 [14] was 2 µg/mL (≈ 3.41 µM) and the MIC90 [15] was 2 µg/mL (≈ 3.41 µM). The MIC90 [16] was 2 µg/mL (≈ 3.41 µM), the MIC90 [17] was 2 µg/mL (≈ 3.41 µM) and the MIC90 [18] was 2 µg/mL (≈ 3.41 µM). The MIC90 [23] was 2 µg/mL (≈ 3.41 µM) and the MIC90 [24] was 0.5 µg/mL (≈ 0.854 µM).
